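All cell lines were grown in 96-well plates and treated with compound for 48 hours. GI50: concentration for 50% inhibition of growth. TGI is the concentration that stops growth completely.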
How the values were obtained:
Test in all cases: inhibition of tumour cell growth, NCI panel, 48 h
[1] = system: T-47D breast
[2] = system: HL-60(TB) leukemia
[3] = system: BT-549 breast
[4] = system: HS 578T breast
[5] = system: NCI/ADR-RES ovarian
[6] = system: MDA-MB-435
[7] = system: COLO 205 colon
[8] = system: DMS 273 small cell lung
[9] = system: KM20L2 colon
[10] = system: LXFL 529 NSCLC

## CC(C)(C)n1cc(-c2ccnc(NCCCNS(=O)(=O)c3ccc(Cl)cc3)c2)c(-c2cccc(O)c2)n1
[1]
  GI50: 1.82 µM
  TGI: 5.51 µM
[2]
  GI50: 2.51 µM
  TGI: 6.37 µM
[3]
  GI50: 1.67 µM
  TGI: 3.16 µM
[4]
  GI50: 1.84 µM
  TGI: 4.81 µM
[5]
  GI50: 1.92 µM
  TGI: 4.62 µM
[6]
  GI50: 1.79 µM
  TGI: 3.41 µM
[7]
  GI50: 1.66 µM
  TGI: 3.39 µM

## C=C(C)C1CCC2(CO)C(O)CC3(C)C(CCC4C5(C)CCC(O)C(C)(C)C5CCC43C)C12 (stereo not given)
[1]
  TGI: 11.3 µM
[2]
  TGI: > 100 µM
[3]
  TGI: > 100 µM
[4]
  TGI: 90.7 µM
[5]
  TGI: 81.5 µM
[6]
  TGI: 38.3 µM

## Cc1ccc(C(=O)Nc2ccccc2C(=O)N/N=C(\c2ccccc2)c2ccccn2)cc1
[1]
  GI50: 0.493 µM
  TGI: > 100 µM
[3]
  GI50: 0.517 µM
  TGI: > 100 µM
[4]
  GI50: 9.13 µM
  TGI: > 100 µM
[5]
  GI50: 0.2 µM
  TGI: > 100 µM
[6]
  GI50: 0.534 µM
  TGI: > 100 µM
[7]
  GI50: 0.334 µM
  TGI: > 100 µM

## CN(C)CCN1C(=O)c2cccc3c(-c4ccc5ncn(C6CCCCC6)c5c4)ccc(c23)C1=O
[1]
  GI50: 3.16 µM
  TGI: 23.4 µM
[2]
  GI50: 2.18 µM
  TGI: 10.5 µM
[3]
  GI50: 3.95 µM
  TGI: 16.2 µM
[4]
  GI50: 3.51 µM
  TGI: 20.8 µM
[5]
  GI50: 1.14 µM
  TGI: 13.4 µM
[6]
  GI50: 2.71 µM
  TGI: 11.1 µM
[7]
  GI50: 1.21 µM
  TGI: 4.14 µM

## CC(=O)Oc1cc(OC(C)=O)c2cc3c(cc2c1OC(C)=O)C(=O)C1(CCCC1)C3=O
[2]
  TGI: 73.6 µM
[8]
  TGI: 35.8 µM
[9]
  TGI: 46.3 µM
[7]
  TGI: 33.9 µM

## Clc1ccc2c(NCCN3CCN(c4ccnc(N5CCCC5)n4)CC3)ccnc2c1
[1]
  GI50: 2.01 µM
  TGI: 5.59 µM
[2]
  GI50: 2.37 µM
  TGI: 6.25 µM
[3]
  GI50: 5.63 µM
  TGI: 19.4 µM
[4]
  GI50: 3.54 µM
  TGI: 19.8 µM
[5]
  GI50: 4.12 µM
  TGI: 18.1 µM
[6]
  GI50: 1.96 µM
  TGI: 4.54 µM
[7]
  GI50: 1.63 µM
  TGI: 3.59 µM

## Cn1c(=O)c2[nH]cnc2n(CC(=O)O)c1=O
[10]
  TGI: > 100 µM
[8]
  TGI: > 100 µM
[9]
  TGI: > 100 µM
[7]
  TGI: > 100 µM

## COc1cc2c(cc1-c1c(C)noc1C)ncc1[nH]c(=O)n([C@H](C)c3ccccn3)c12
[1]
  GI50: 1.22 µM
  TGI: > 100 µM
[2]
  GI50: 0.144 µM
  TGI: > 100 µM
[3]
  GI50: 13.1 µM
  TGI: > 100 µM
[4]
  GI50: 0.295 µM
  TGI: > 100 µM
[5]
  GI50: 10.9 µM
  TGI: > 100 µM
[6]
  GI50: 0.474 µM
  TGI: > 100 µM
[7]
  GI50: 0.241 µM
  TGI: > 35.6 µM

## C/C=C/COc1cc(NC(=S)c2ccoc2C)ccc1OC
[1]
  TGI: > 100 µM
[2]
  TGI: > 100 µM
[3]
  TGI: > 100 µM
[4]
  TGI: 90.7 µM
[5]
  TGI: > 100 µM
[6]
  TGI: > 100 µM
[7]
  TGI: > 100 µM

## CN(Cc1ccccc1)c1nc(=[N+](C)C)ss1
[10]
  TGI: > 100 µM
[2]
  TGI: > 100 µM
[8]
  TGI: > 100 µM
[9]
  TGI: > 100 µM

## CCN1CCN(c2cc(C)nc(NCc3cc(Nc4ccnc5cc(Cl)ccc45)ccc3F)n2)CC1
[1]
  GI50: 1.42 µM
  TGI: 4.31 µM
[2]
  GI50: 2.18 µM
  TGI: 22.1 µM
[3]
  GI50: 5.36 µM
  TGI: 21.8 µM
[4]
  GI50: 5.34 µM
  TGI: 50.6 µM
[5]
  GI50: 5.03 µM
  TGI: > 100 µM
[6]
  GI50: 2.22 µM
  TGI: 5.99 µM
[7]
  GI50: 0.897 µM
  TGI: 2.81 µM

## C[C@@H]1CCC2[C@@H](C)[C@H](OC(=O)CCC(=O)NCCNC(=O)Cc3cc(=O)oc4cc(N(C)C)ccc34)O[C@@H]3O[C@]4(C)CC[C@@H]1C23OO4 (stereo not given in full)
[1]
  GI50: 0.862 µM
  TGI: 50.2 µM
[2]
  GI50: 0.301 µM
  TGI: 6.77 µM
[3]
  GI50: 3.07 µM
  TGI: > 100 µM
[4]
  GI50: 3.21 µM
  TGI: > 33.1 µM
[5]
  GI50: 1.19 µM
  TGI: 22.9 µM
[6]
  GI50: 0.472 µM
  TGI: 16.8 µM
[7]
  GI50: 2.62 µM
  TGI: 15.2 µM

## O=C(Nn1c2c(sc1=NC1CC1)C(=O)c1ccccc1C2=O)c1cc2ccc1CCc1ccc(cc1)CC2
[1]
  GI50: 2.49 µM
  TGI: 14.4 µM
[2]
  GI50: 2.18 µM
  TGI: 6.26 µM
[3]
  GI50: 1.5 µM
  TGI: 2.91 µM
[4]
  GI50: 2.09 µM
  TGI: 6.03 µM
[5]
  GI50: 1.93 µM
  TGI: 6.77 µM
[6]
  GI50: 1.76 µM
  TGI: 3.23 µM
[7]
  GI50: 3.36 µM
  TGI: 12.7 µM

## Cc1[nH]ccc2cc3nc4ccccc4c3cc12
[1]
  GI50: 3.62 µM
  TGI: 18.9 µM
[2]
  GI50: 3.48 µM
  TGI: 14.9 µM
[3]
  GI50: 2.74 µM
  TGI: 13.3 µM
[4]
  GI50: 3.26 µM
  TGI: 18 µM
[5]
  GI50: 1.8 µM
  TGI: 11.9 µM
[6]
  GI50: 2.89 µM
  TGI: 12.7 µM
[7]
  GI50: 2.35 µM
  TGI: 7.15 µM

## CC(=O)[CH-]C(=O)c1ccccc1.CC(=O)[CH-]C(=O)c1ccccc1.CC12CC3(C)CC(C)(C1)CC([O-])(C2)C3.CC[O-].[Ti+4]
[2]
  GI50: 27.8 µM
  TGI: > 100 µM
[8]
  GI50: 33.4 µM
  TGI: > 100 µM
[9]
  GI50: 35.2 µM
  TGI: > 100 µM
[7]
  GI50: 19.4 µM
  TGI: 40.2 µM

## O=C(Nc1cc([N+](=O)[O-])cc([N+](=O)[O-])c1)OC1C2CCC1C1OC1C2 (stereo not given)
[2]
  TGI: > 50 µM
[9]
  TGI: > 50 µM
[7]
  TGI: > 50 µM

## CCCCCC/C=C\CCCCCCCCCc1c(O)c(OC)cc(O)c1CN(C)C
[1]
  TGI: 4.2 µM
[2]
  TGI: 5.37 µM
[3]
  TGI: 21 µM
[4]
  TGI: 10.9 µM
[5]
  TGI: 37 µM
[6]
  TGI: 20 µM
[7]
  TGI: 4.43 µM

## N#CNc1nc(C(=O)Nc2ccc(Cl)cc2)cc(-c2ccccc2)n1
[10]
  TGI: > 100 µM
[2]
  TGI: > 100 µM
[8]
  TGI: > 100 µM
[9]
  TGI: > 100 µM

## O=C1/C(=C/c2ccc(C(F)(F)F)cc2)COc2ccc(O)cc21
[1]
  GI50: 2.03 µM
  TGI: 4.76 µM
[2]
  GI50: 1.27 µM
  TGI: 4.35 µM
[3]
  GI50: 4.29 µM
  TGI: 15.5 µM
[4]
  GI50: 2.7 µM
[5]
  GI50: 2.15 µM
  TGI: 6.42 µM
[6]
  GI50: 2.41 µM
  TGI: 6.54 µM
[7]
  GI50: 2.47 µM
  TGI: 5.83 µM

## CCc1ccccc1NC(=O)C1=C(C)NC(C)=C(C(=O)Nc2ccccc2CC)C1c1ccc(NC(C)=O)cc1
[10]
  TGI: 87.2 µM
[2]
  TGI: 39.5 µM
[9]
  TGI: 58.8 µM
[7]
  TGI: > 100 µM

## O=C(O)CCc1nc(-c2ccccc2)c(-c2ccccc2)o1
[1]
  TGI: > 100 µM
[2]
  TGI: > 100 µM
[3]
  TGI: > 100 µM
[4]
  TGI: > 100 µM
[5]
  TGI: > 100 µM
[6]
  TGI: > 100 µM
[7]
  TGI: > 100 µM
